Results: patent US20250019387A1 (Frontier Medicines Corporation, priority 0001, published 2025)
Like-named read-outs stand apart in the source and are kept apart here.

Experiments:
[1] = target: KRAS G12C and cRAF (Ras-binding domain) interaction (Homo sapiens (Human), UniProt P01116, C118S/C51S/C80L/G12C); experiment: Inhibition of KRAS G12C and cRAF binding (AlphaScreen)
Outline: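 Compounds (DMSO) preincubated 19-20 h at room temperature, then RBD with streptavidin donor and glutathione acceptor beads added in 25 mM Hepes pH 7.4, 150 mM NaCl, 5 mM MgCl2, 0.01% Triton X-100, 2% DMSO for 60-90 min. Emission 570 nm (excitation 680 nm); IC50 by 4-parameter fit. Counter-screen used biotin-AviTag-GST instead of RBD.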

[2] = target: KRAS G12C and PI3Ka (Ras-binding domain) interaction (Homo sapiens (Human), UniProt P01116, C118S/C51S/C80L/G12C); experiment: Inhibition of KRAS G12C and PI3Ka binding (AlphaScreen); details: GMPPNP-loaded KRAS G12C, 2 hours incubation with compound; read-out: PI3Ka RBD IC50
Chain of KRAS G12C and PI3Ka (Ras-binding domain) interaction (P01116 other isoform, or with tags, fused parts or gaps G12C/C51S/C80L/C118S): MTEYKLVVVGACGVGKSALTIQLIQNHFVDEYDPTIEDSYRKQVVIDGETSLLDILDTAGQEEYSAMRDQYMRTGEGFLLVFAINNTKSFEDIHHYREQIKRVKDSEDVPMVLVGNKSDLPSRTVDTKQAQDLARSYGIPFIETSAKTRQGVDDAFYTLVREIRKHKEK
Protocol: Compounds were diluted in 100% DMSO and each compound concentration was spotted at 200 nl/well onto low volume, white 384 well plates. […] The KRAS GT2C was diluted in 25 mM Hepes, pH 7.4, 150 mM NaCl, 5 mMv MgCl2, 0.0100 TritonX-100 and 10 μM GMPPNP and added at 10 ul/well to compound-spotted plates resulting in a […] concentration of 2%. Plates were incubated for 2 hours. A mixture of RBD and the AlphaScreen streptavidin donor and nickel chelate acceptor beads diluted in 25 mMv Hepes, pH 7.4, 150 mMv NaCl, 5 mM MgCl2, 0.0100 TritonX-100 and 2% DMSO was then added at 10 ul/well and incubated for 60-90 minutes before the samples were read for emission at 570 nm after excitation of the donor beads at 680 nm. All incubations were performed at room temperature. […] Final assay conditions were 1.5 nM KRAS GT2C, 100 nM RBD, 1.25 ug/ml of AlphaScreen donor beads and 10 μg/ml AlphaLISA acceptor beads. IC50S were determined using nonlinear regression fit of [inhibitor]vs. response (4 parameters). […]

[3] = GMPPNP-loaded KRAS G12C, 19-20 hours incubation with compound, read-out: IC50 (Inhibition of KRAS G12C and cRAF Binding)
[4] = additional exemplary compounds, KRAS G12C and cRAF binding, read-out: RAF1 RBD IC50

Chain of KRAS G12C and cRAF (Ras-binding domain) interaction (P01116 other isoform, or with tags, fused parts or gaps G12C/C51S/C80L/C118S): as above

Compound	IC50 [1, 3] [nM]	IC50 [1, 4] [nM]	other results
CN(c1nc(OC[C@@]23CCCN2C[C@H](F)C3)nc2c1CCN(c1cccc3cccc(Cl)c13)C2)[C@@H]1CCN(C(=O)/C=C/c2nc([C@H]3C[C@@H]3F)no2)C1 [Example 130, (E)-1-((R)-3-((7-(8-chloronaphthalen-1-yl)-2-(((2R,7aS)-2-fluorohexahydro-1H-pyrrolizin-7a-yl)methoxy)-5,6,7,8-tetrahydropyrido[3,4-d]pyrimidin-4-yl)(methyl)amino)pyrrolidin-1-yl)-3-(3-((1R,2S)-2-fluorocyclopropyl)-1,2,4-oxadiazol-5-yl)prop-2-en-1-one]	10 to 100	–	IC50 [2]: 10 to 100 nM
C=CC(=O)N1CC[C@@H](N(C)c2nc(OCC34CCCN3CCC4)nc3c(F)c(-c4cccc5cccc(F)c45)ncc23)C1 [Example 259, (R)-1-(3-((8-fluoro-7-(8-fluoronaphthalen-1-yl)-2-((tetrahydro-1H-pyrrolizin-7a(5H)-yl)methoxy)pyrido[4,3-d]pyrimidin-4-yl)(methyl)amino)pyrrolidin-1-yl)prop-2-en-1-one]	100 to 500	–	IC50 [2]: 10 to 100 nM
CCc1noc(/C=C/C(=O)N2CC(CN(C)c3nc(OCC45CCCN4CCC5)nc4c3CCN(c3cccc5cccc(Cl)c35)C4)C2)n1 [Example 168, (E)-1-(3-(((7-(8-chloronaphthalen-1-yl)-2-((hexahydro-1H-pyrrolizin-7a-yl)methoxy)-5,6,7,8-tetrahydropyrido[3,4-d]pyrimidin-4-yl)(methyl)amino)methyl)azetidin-1-yl)-3-(3-ethyl-1,2,4-oxadiazol-5-yl)prop-2-en-1-one]	10 to 100	–	IC50 [2]: 10 to 100 nM
C=CC(=O)N1CC[C@@H](N(C)c2nc(OC[C@@]34CCCN3C[C@H](F)C4)nc3c(F)c(-c4cccc5cccc(F)c45)ncc23)C1 [Example 258, 1-((R)-3-((8-fluoro-7-(8-fluoronaphthalen-1-yl)-2-(((2R,7aS)-2-fluorotetrahydro-1H-pyrrolizin-7a(5H)-yl)methoxy)pyrido[4,3-d]pyrimidin-4-yl)(methyl)amino)pyrrolidin-1-yl)prop-2-en-1-one]	10 to 100	–	IC50 [2]: 10 to 100 nM
CN(c1nc(OCC23CCCN2CCC3)nc2c1CCN(c1cccc3cccc(Cl)c13)C2)[C@@H]1CCN(C(=O)/C=C/c2nc(C3CC3)no2)C1 [Example 161, (R,E)-1-(3-((7-(8-chloronaphthalen-1-yl)-2-((hexahydro-1H-pyrrolizin-7a-yl)methoxy)-5,6,7,8-tetrahydropyrido[3,4-d]pyrimidin-4-yl)(methyl)amino)pyrrolidin-1-yl)-3-(3-cyclopropyl-1,2,4-oxadiazol-5-yl)prop-2-en-1-one]	10 to 100	–	IC50 [2]: 10 to 100 nM
CN(c1nc(OCC23CCCN2CCC3)nc2c1CCN(c1cccc3cccc(Cl)c13)C2)[C@@H]1CCN(C#N)C1 [Example 39, (R)-3-((7-(8-chloronaphthalen-1-yl)-2-((tetrahydro-1H-pyrrolizin-7a(5H)-yl)methoxy)-5,6,7,8-tetrahydropyrido[3,4-d]pyrimidin-4-yl)(methyl)amino)pyrrolidine-1-carbonitrile]	100 to 500	–	–
C=CC(=O)N1CC[C@@H](N(C)c2nc(OC[C@@]34CCCN3C[C@H](F)C4)nc3c(F)c(-c4cccc5c(C)c(F)ccc45)ncc23)C1	–	> 500	–
CN(c1nc(OC[C@@]23CCCN2C[C@H](F)C3)nc2c(F)c(-c3cccc4cccc(Cl)c34)ncc12)[C@@H]1CCN(C#N)C1	–	10 to 100	–
O=C(/C=C/CN1CCOCC1)N1CCCN(c2nc(OC[C@@]34CCCN3C[C@H](F)C4)nc3c(F)c(-c4cccc5cccc(Cl)c45)ncc23)CC1	–	> 500	–
C=CC(=O)N1CC[C@@H](N(C)c2nc(OC[C@@H]3CCCN3C)nc3c(F)c(-c4cccc5cccc(Cl)c45)ncc23)C1	–	> 500	–
CN1CCC[C@H]1COc1nc2c(c(N(C)[C@@H]3CCN(C#N)C3)n1)CCN(c1cccc3cccc(Cl)c13)C2 [Example 33, (R)-3-((7-(8-chloronaphthalen-1-yl)-2-(((S)-1-methylpyrrolidin-2-yl)methoxy)-5,6,7,8-tetrahydropyrido[3,4-d]pyrimidin-4-yl)(methyl)amino)pyrrolidine-1-carbonitrile]	100 to 500	–	–
C=CC(=O)N1CC(CN(C)c2nc(OC[C@]34CCCN3C[C@@H](F)C4)nc3c2CCN(c2cccc4cccc(Cl)c24)C3)C1	–	100 to 500	–
C=CC(=O)N1CC[C@@H](N(C)c2nc(OC[C@]34CCCN3C[C@H](F)C4)nc3c(F)c(-c4cccc5ccc(F)c(Cl)c45)ncc23)C1 [Example 81, 1-((R)-3-((7-(8-chloro-7-fluoronaphthalen-1-yl)-8-fluoro-2-(((2R,7aR)-2-fluorotetrahydro-1H-pyrrolizin-7a(5H)-yl)methoxy)pyrido[4,3-d]pyrimidin-4-yl)(methyl)amino)pyrrolidin-1-yl)prop-2-en-1-one]	10 to 100	–	–
CN(CCC1CN(C#N)C1)c1nc(OC[C@@H]2CCCN2C)nc2c1CCN(c1cccc3cccc(Cl)c13)C2 [Example 34, (S)-3-(2-((7-(8-chloronaphthalen-1-yl)-2-((l-methylpyrrolidin-2-yl)methoxy)-5,6,7,8-tetrahydropyrido[3,4-d]pyrimidin-4-yl)(methyl)amino)ethyl)azetidine-1-carbonitrile]	100 to 500	–	–
CN(c1nc(OC[C@@]23CCCN2C[C@H](F)C3)nc2c(F)c(-c3cccc4ccc(F)c(Cl)c34)ncc12)[C@@H]1CCN(C(=O)/C=C/C2CCCO2)C1 (stereo partly drawn) [Example 252, (E)-1-((R)-3-((7-(8-chloro-7-fluoronaphthalen-1-yl)-8-fluoro-2-(((2R,7aS)-2-fluorotetrahydro-1H-pyrrolizin-7a(5H)-yl)methoxy)pyrido[4,3-d]pyrimidin-4-yl)(methyl)amino)pyrrolidin-1-yl)-3-(tetrahydrofuran-2-yl)prop-2-en-1-one]	100 to 500	–	–
C=CC(=O)CCN(C)c1nc(OCC2CCN2C)nc2c1CCN(c1cccc3cccc(Cl)c13)C2 (centres unmarked)	–	10 to 100	–
CN(C)C/C=C/C(=O)N1CC[C@@H](N(C)c2nc(OCC34CCCN3CCC4)nc3c2CCN(c2cccc4ccc(F)c(Cl)c24)C3)C1	–	100 to 500	–
CN(c1nc(OCC23CCCN2CCC3)nc2c(F)c(-c3cccc4cccc(Cl)c34)ncc12)[C@@H]1CCN(C(=O)/C=C/c2nc([C@H]3C[C@@H]3F)no2)C1 [Example 129, (E)-1-((R)-3-((7-(8-chloronaphthalen-1-yl)-8-fluoro-2-((tetrahydro-1H-pyrrolizin-7a(5H)-yl)methoxy)pyrido[4,3-d]pyrimidin-4-yl)(methyl)amino)pyrrolidin-1-yl)-3-(3-((1R,2S)-2-fluorocyclopropyl)-1,2,4-oxadiazol-5-yl)prop-2-en-1-one]	10 to 100	–	–
Cc1nccc(/C=C/C(=O)N2[C@@H]3CC[C@H]2CN(c2nc(OC[C@@]45CCCN4C[C@H](F)C5)nc4c(F)c(-c5cccc6cccc(Cl)c56)ncc24)C3)n1	–	> 500	–
Cc1nccc(/C=C/C(=O)N2C[C@@H]3CN(c4nc(OC[C@@]56CCCN5C[C@H](F)C6)nc5c(F)c(-c6cccc7cccc(Cl)c67)ncc45)C[C@@H]3C2)n1	–	> 500	–
COC(=O)/C=C/C(=O)N1CC(CN(C)c2nc(OCC34CCCN3CCC4)nc3c(F)c(-c4cccc5cccc(Cl)c45)ncc23)C1 [Example 25, methyl(E)-4-(3-(((7-(8-chloronaphthalen-1-yl)-8-fluoro-2-((tetrahydro-1H-pyrrolizin-7a(5H)-yl)methoxy)pyrido[4,3-d]pyrimidin-4-yl)(methyl)amino)methyl)azetidin-1-yl)-4-oxobut-2-enoate]	< 10	–	–
C=CC(=O)N1CC[C@@H](N(CC(F)F)c2nc(OC[C@@]34CCCN3C[C@H](F)C4)nc3c(F)c(-c4cccc5cccc(Cl)c45)ncc23)C1 [Example 194, 1-((R)-3-((7-(8-chloronaphthalen-1-yl)-8-fluoro-2-(((2R,7aS)-2-fluorotetrahydro-1H-pyrrolizin-7a(5H)-yl)methoxy)pyrido[4,3-d]pyrimidin-4-yl)(2,2-difluoroethyl)amino)pyrrolidin-1-yl)prop-2-en-1-one]	–	–	IC50 [1]: 10 to 100 nM
C=CS(=O)(=O)CCCN(C)c1nc(OC[C@@H]2CCCN2C)nc2c1CCN(c1cccc3cccc(Cl)c13)C2 [Example 46, (S)-7-(8-chloronaphthalen-1-yl)-N-methyl-2-((1-methylpyrrolidin-2-yl)methoxy)-N-(3-(vinylsulfonyl)propyl)-5,6,7,8-tetrahydropyrido[3,4-d]pyrimidin-4-amine]	> 500	–	–
CN(c1nc(OCC23CCCN2CCC3)nc2c1CCN(c1cccc3cccc(Cl)c13)C2)[C@@H]1CCN(C(=O)/C=C/c2nc([C@H]3C[C@@H]3F)no2)C1 [Example 141, (E)-1-((R)-3-((7-(8-chloronaphthalen-1-yl)-2-((hexahydro-1H-pyrrolizin-7a-yl)methoxy)-5,6,7,8-tetrahydropyrido[3,4-d]pyrimidin-4-yl)(methyl)amino)pyrrolidin-1-yl)-3-(3-((1R,2S)-2-fluorocyclopropyl)-1,2,4-oxadiazol-5-yl)prop-2-en-1-one]	10 to 100	–	–
